Data: ChEMBL document CHEMBL4359906, “Design and synthesis of new N-terminal fatty acid modified-antimicrobial peptide analogues with potent in vitro biological activity” (Eur J Med Chem, 2019)
≈ marks a conversion by molar mass, not a printed value. Calls of active or inactive are those of the source. The rule behind the calls is not given here.

Columns and labels:
Escherichia coli [1] = experiment: Antibacterial activity against Escherichia coli ATCC 43837 after 18 hrs by CLSI based broth microdilution method; type: functional; settings: ATCC 43837, 18 h
Klebsiella pneumoniae [2] = experiment: Antibacterial activity against Klebsiella pneumoniae ATCC 700603 after 18 hrs by CLSI based broth microdilution method; type: functional; settings: Klebsiella pneumoniae, 700603, 18 h
Pseudomonas aeruginosa [3] = experiment: Antibacterial activity against Pseudomonas aeruginosa ATCC 27853 after 18 hrs by CLSI based broth microdilution method; type: functional; settings: ATCC 27853, 18 h
Staphylococcus aureus [4] = experiment: Antibacterial activity against methicillin-resistant Staphylococcus aureus 936 after 18 hrs by CLSI based broth microdilution method; type: functional; settings: Staphylococcus aureus, 936, 18 h
Bacillus subtilis = experiment: Antibacterial activity against Bacillus subtilis ATCC 23857 after 18 hrs by CLSI based broth microdilution method; type: functional; settings: ATCC 23857, 18 h
Erythrocyte = experiment: Hemolytic activity in human RBC measured after 1 hr by microplate reader analysis; type: ADME, cell-based
[5] = Selectivity index, ratio of MHC10 for human RBC to geometric mean of peptide MIC for gram positive bacteria; type: toxicity; settings: human red blood cells, read-out: Selectivity Index
[6] = Selectivity index, ratio of MHC10 for human RBC to geometric mean of peptide MIC for gram negative bacteria; type: toxicity; settings: human red blood cells, read-out: Selectivity Index
Escherichia coli [7] = experiment: Potentiation of polymyxin B-induced antibacterial activity against Escherichia coli ATCC 25922 assessed as FICI after 18 hrs by checker board assay; type: functional
Klebsiella pneumoniae [8] = experiment: Potentiation of polymyxin B-induced antibacterial activity against Klebsiella pneumoniae ATCC 700603 assessed as FICI after 18 hrs by checker board assay; type: functional
Pseudomonas aeruginosa [9] = experiment: Potentiation of polymyxin B-induced antibacterial activity against Pseudomonas aeruginosa ATCC 27853 assessed as FICI after 18 hrs by checker board assay; type: functional
Escherichia coli [10] = experiment: Potentiation of rifampicin-induced antibacterial activity against Escherichia coli ATCC 25922 assessed as FICI after 18 hrs by checker board assay; type: functional
Klebsiella pneumoniae [11] = experiment: Potentiation of rifampicin-induced antibacterial activity against Klebsiella pneumoniae ATCC 700603 assessed as FICI after 18 hrs by checker board assay; type: functional
Pseudomonas aeruginosa [12] = experiment: Potentiation of rifampicin-induced antibacterial activity against Pseudomonas aeruginosa ATCC 27853 assessed as FICI after 18 hrs by checker board assay; type: functional
Escherichia coli [13] = experiment: Antibacterial activity against Escherichia coli ATCC 25922 at 0.5 times MIC incubated for 18 hrs measured for 15 passages by CLSI based broth microdilution method; type: functional, organism-based
Escherichia coli [14] = experiment: Antibiofilm activity against Escherichia coli ATCC 25922 after 24 hrs by crystal violet staining based assay; type: functional, organism-based
Staphylococcus aureus [15] = experiment: Antibiofilm activity against Staphylococcus aureus ATCC 25923 after 24 hrs by crystal violet staining based assay; type: functional, organism-based
Pseudomonas aeruginosa [16] = experiment: Antibiofilm activity against Pseudomonas aeruginosa ATCC 27853 after 24 hrs by crystal violet staining based assay; type: functional, organism-based
Escherichia coli [17] = experiment: Antibiofilm activity against Escherichia coli ATCC 25922 at 2 times MIC after 24 hrs by crystal violet staining based assay; type: functional, organism-based
Pseudomonas aeruginosa [18] = experiment: Antibiofilm activity against Pseudomonas aeruginosa ATCC 27853 at 0.25 to 2 times of MIC after 24 hrs by crystal violet staining based assay; type: functional, organism-based
Escherichia coli [19] = experiment: Antimicrobial activity against Escherichia coli ATCC 25922 at 1 mM preincubated for 6 hrs in presence of 2000 ug/ml trypsin and measured after 18 hrs by microplate reader analysis; type: functional, organism-based
Escherichia coli [20] = experiment: Antimicrobial activity against Escherichia coli ATCC 25922 at 1 mM preincubated for 6 hrs in presence of 2 ug/ml chymotrypsin and measured after 18 hrs by microplate reader analysis; type: functional, organism-based
Escherichia coli [21] = experiment: Ratio of MIC for Escherichia coli ATCC 25922 preincubated for 1 hr in presence of 10% mouse serum and measured after 18 hrs to MIC for antibacterial activity against Escherichia coli ATCC 25922 after 18 hrs; type: functional
Escherichia coli [22] = experiment: Ratio of MIC for Escherichia coli ATCC 25922 preincubated for 6 hrs in presence of 10% mouse serum and measured after 18 hrs to MIC for antibacterial activity against Escherichia coli ATCC 25922 after 18 hrs; type: functional
Escherichia coli [23] = experiment: Induction of outer membrane permeabilization in Escherichia coli ATCC 25922 measured up to 12 mins by NPN-dye based assay; type: organism-based
Escherichia coli [24] = experiment: Induction of inner membrane permeabilization in Escherichia coli ATCC 43837 assessed as increase in ONPG release at 4 times of MIC by ONPG dye based assay; type: organism-based
Escherichia coli [25] = experiment: Disruption of membrane integrity in Escherichia coli ATCC 25922 assessed as membrane damage by measuring PI fluorescence at 4 times of MIC incubated for 1 hr by PI dye based flow cytometric analysis (reference value: 1.35%); type: functional
Escherichia coli [26] = experiment: Disruption of membrane integrity in Escherichia coli ATCC 25922 assessed as membrane damage by measuring PI fluorescence at 2 times of MIC incubated for 1 hr by PI dye based flow cytometric analysis (reference value: 1.35%); type: functional
Escherichia coli [27] = experiment: Induction of membrane disruption in Escherichia coli ATCC 25922 assessed as rough membrane surface at 4 times of MIC after 2 hrs by SEM analysis; type: functional, organism-based
Escherichia coli [28] = experiment: Induction of membrane disruption in Escherichia coli ATCC 25922 assessed as corrugated membrane surface at 4 times of MIC after 2 hrs by SEM analysis; type: functional, organism-based
Escherichia coli [29] = experiment: Induction of membrane disruption in Escherichia coli ATCC 25922 assessed as degeneration in membrane at 4 times of MIC after 2 hrs by SEM analysis; type: functional, organism-based
DNA = experiment: Binding affinity to Escherichia coli ATCC 25922 genomic DNA after 30 mins by agarose gel electrophoresis; type: nucleic-acid assay
Escherichia coli [30] = experiment: Ratio of antibacterial activity against Escherichia coli ATCC 25922 in presence of NaCl to antibacterial activity against Escherichia coli ATCC 25922; type: functional
Escherichia coli [31] = experiment: Ratio of antibacterial activity against Escherichia coli ATCC 25922 in presence of MgCl2 to antibacterial activity against Escherichia coli ATCC 25922; type: functional
Staphylococcus aureus [32] = experiment: Ratio of antibacterial activity against Staphylococcus aureus ATCC 25923 in presence of NaCl to antibacterial activity against Staphylococcus aureus ATCC 25923; type: functional
Staphylococcus aureus [33] = experiment: Ratio of antibacterial activity against Staphylococcus aureus ATCC 25923 in presence of KCl to antibacterial activity against Staphylococcus aureus ATCC 25923; type: functional
Staphylococcus aureus [34] = experiment: Ratio of antibacterial activity against Staphylococcus aureus ATCC 25923 in presence of MgCl2 to antibacterial activity against Staphylococcus aureus ATCC 25923; type: functional
Staphylococcus aureus [35] = experiment: Ratio of antibacterial activity against Staphylococcus aureus ATCC 25923 in presence of FeCl3 to antibacterial activity against Staphylococcus aureus ATCC 25923; type: functional
Escherichia coli [36] = experiment: Induction of membrane disruption in Escherichia coli ATCC 25922 assessed as fracture in membrane at 4 times of MIC after 2 hrs by SEM analysis; type: functional, organism-based
Escherichia coli [37] = experiment: Induction of ROS generation in Escherichia coli ATCC 25922; type: functional, organism-based
Escherichia coli [38] = experiment: Induction of inner membrane permeabilization in Escherichia coli ATCC 43837 assessed as increase in ONPG release at 1 to 2 times of MIC by ONPG dye based assay; type: organism-based

Structure (SMILES)	MIC (Escherichia coli [1]) [µM]	MIC (Klebsiella pneumoniae [2]) [µM]	MIC (Pseudomonas aeruginosa [3]) [µM]	MIC (Staphylococcus aureus [4]) [µM]	MIC (Bacillus subtilis) [µM]	MHC10 (Erythrocyte) [µM]	selectivity ratio [5]	selectivity ratio [6]	fractional inhibitory concentration index (FICI) (Escherichia coli [7])	fractional inhibitory concentration index (FICI) (Klebsiella pneumoniae [8])	fractional inhibitory concentration index (FICI) (Pseudomonas aeruginosa [9])	fractional inhibitory concentration index (FICI) (Escherichia coli [10])	fractional inhibitory concentration index (FICI) (Klebsiella pneumoniae [11])	fractional inhibitory concentration index (FICI) (Pseudomonas aeruginosa [12])	Activity (Escherichia coli [13])	inhibition (Escherichia coli [14])	inhibition (Staphylococcus aureus [15])	inhibition (Pseudomonas aeruginosa [16])	inhibition (Escherichia coli [17])	Activity (Escherichia coli [19])	also measured
CCCCCCCC(=O)NCC(=O)N[C@@H](CC(C)C)C(=O)N[C@@H](CC(C)C)C(=O)N[C@H](CCCCN)C(=O)N[C@@H](CCCNC(=N)N)C(=O)N[C@H](C(=O)N[C@H](CCCCN)C(=O)N[C@H](C(=O)N[C@@H](CC(C)C)C(=O)N[C@@H](CC(C)C)C(N)=O)[C@@H](C)O)[C@@H](C)CC	32 (≈ 41 µg/mL)	64 (≈ 81.9 µg/mL)	8 (≈ 10.2 µg/mL)	64 (≈ 81.9 µg/mL)	4 (≈ 5.12 µg/mL)	> 256	15.4	12.2	0.1875	0.0625	0.1875	0.0625	0.0625	0.75	Active	Dose-dependent effect	Dose-dependent effect	Dose-dependent effect	Active	Active	inhibition (Pseudomonas aeruginosa [18]): Active; Activity (Escherichia coli [20]): Active; Ratio (Escherichia coli [21]): 1; Ratio (Escherichia coli [22]): 1; Activity (Escherichia coli [23]): Dose-dependent effect; Activity (Escherichia coli [24]): Active; Activity (Escherichia coli [25]): 70.8%; Activity (Escherichia coli [26]): 64.6%; Activity (Escherichia coli [27]): Active; Activity (Escherichia coli [28]): Active; Activity (Escherichia coli [29]): Active; Activity (DNA): Dose-dependent effect; Ratio (Escherichia coli [30]): 2 - 4; Ratio (Escherichia coli [31]): 2 - 4; Ratio (Staphylococcus aureus [32]): 2 - 4; Ratio (Staphylococcus aureus [33]): 2 - 4; Ratio (Staphylococcus aureus [34]): 2 - 4; Ratio (Staphylococcus aureus [35]): 2 - 4; Activity (Escherichia coli [36]): Active; Activity (Escherichia coli [37]): inactive
CCCCCCCCCCCC(=O)NCC(=O)N[C@@H](CC(C)C)C(=O)N[C@@H](CC(C)C)C(=O)N[C@H](CCCCN)C(=O)N[C@@H](CCCNC(=N)N)C(=O)N[C@H](C(=O)N[C@H](CCCCN)C(=O)N[C@H](C(=O)N[C@@H](CC(C)C)C(=O)N[C@@H](CC(C)C)C(N)=O)[C@@H](C)O)[C@@H](C)CC	16 (≈ 21.4 µg/mL)	8 (≈ 10.7 µg/mL)	16 (≈ 21.4 µg/mL)	16 (≈ 21.4 µg/mL)	2 (≈ 2.67 µg/mL)	16	2.18	1.14	0.1875	0.3125	0.1875	0.5625	0.5625	0.3125	Active	Dose-dependent effect	Dose-dependent effect	Dose-dependent effect	Active	Active	Activity (Escherichia coli [20]): Active; Ratio (Escherichia coli [21]): 1; Ratio (Escherichia coli [22]): 2; Activity (Escherichia coli [23]): Dose-dependent effect; Activity (Escherichia coli [24]): Active; Activity (Escherichia coli [38]): Active; Activity (Escherichia coli [25]): 94.7%; Activity (Escherichia coli [26]): 60.8%; Activity (Escherichia coli [27]): Active; Activity (Escherichia coli [28]): Active; Activity (Escherichia coli [29]): Active; Activity (DNA): Dose-dependent effect; Ratio (Escherichia coli [30]): 2 - 4; Ratio (Escherichia coli [31]): 2 - 4; Ratio (Staphylococcus aureus [32]): 2 - 4; Ratio (Staphylococcus aureus [33]): 2 - 4; Ratio (Staphylococcus aureus [34]): 2 - 4; Ratio (Staphylococcus aureus [35]): 2 - 4; Activity (Escherichia coli [36]): Active; Activity (Escherichia coli [37]): inactive
